Assay results: US11458189B2, “Cytoprotective drugs” (BALMES TRANSPLANTATION, priority 2017, dated 2022)
Starred links: 1 amine or outer side, 2 acyl side, 3 side chain; linkers in the order of their positions; H or OH if unused. Positions of bridges follow the written chain, without caps; N, C: chain ends. Non-standard residues stand in square brackets, D forms with d. Residues, ends and D or L forms follow the SMILES beside them. *: point of attachment. hTyr(3S-OH,4S-OH,3'-OSO3H) = N[C@H](C(=O)O)[C@H](O)[C@@H](O)c1ccc(O)c(OS(=O)(=O)O)c1; Orn(4R-OH,5R-OH) = O=C([C@H](C[C@@H](O)[C@@H](O)N[*:3])N[*:1])[*:2]; Pro(3S-OH,4S-Me) = C[C@H]1CN[C@H](C(=O)O)[C@H]1O; X1 = CCCCCOc1ccc(-c2cc(-c3ccc(C(=O)*)cc3)no2)cc1; Gln(3R-OH) = NC(=O)C[C@@H](O)[C@H](N)C(=O)O; Hyp = O=C(O)[C@@H]1C[C@@H](O)CN1

Tested on: Human Renal Proximal Tubular Epithelial Cells (HRPTEpiC)
Assay: Oxygen and glucose deprivation followed by replenishment, cell survival (calcein AM), HRPTEpiC
Assay type: cell-based
Protocol: Anidulafungin and micafungin were tested on Human Renal Glomerular Endothelial Cells (HRGEC, Innoprot P10665), on Human Renal Proximal Tubular Epithelial Cells (HRPTEpiC, Innoprot P10662), on Human Astrocytes (HA, caltag SC-1800), on Human Cardiac Microvascular Endothelial Cells (HCMEC, Caltag SC-6000), on Human Hepatic Sinusoidal Endothelial Cells (HHSEC, Caltag SC-5000), on Rat Primary Kidney Glomerular Endothelial cells (Cellbiologics, RN-6014G) and on Bovine Brain Microvascular Endothelial Cells (BBMEC, Caltag SC-B100).
In a first phase, these isolated, purified and cryopreserved cells are thawed and multiplied according to the supplier's recommendations in T75 or T175 flasks pre-coated with 2 μg of fibronectin/[…] (CORNING) for HRGEC, HCMEC, HHSEC and BBMEC, or 2 μg poly-L-lysin/cm^2 (Caltag SC-0403) for HRPTEpiC and HA, or 15 mL/flask 175 cm^2 gelatin-based solution (Cellbiologics) in the presence of endothelial cell supplemented growth medium ECM (P60104, INNOPROT, Caltag, SC-1001) for HRGEC, HCMEC, HHSEC, RPKGEC or BBMEC, or astrocyte cell supplemented growth medium AM (Caltag SC-1801) for HA or epithelial cell supplemented growth medium EpiCM (P60106, INNOPROT) for HRPTEpiC, at 37° C. under 5% CO2 and saturated humidity until their confluency. They are then harvested by trypsinization according to the method described by the supplier for exactly 5 minutes and then reseeded in new flasks a maximum of three times.
To carry out the oxygen and glucose deprivation test followed by their replenishment, the cells will be seeded in 96-well black plates with transparent flat bottom (GREINER). Once a sufficient number of cells has been obtained to allow seeding of 2000 to 15000 cells per well of 96-well plates depending on the cell type, the cells are seeded in these 96-well plates previously coated with an extracellular matrix as listed above for the flasks. The cells are cultured for 5 to 8 days according to the cell type, in the presence of the same growth medium as in the flask as described above except for HRGEC and HRPTEpiC for which DMEM (DUTSCHER) with 1 g/L of supplemented glucose is used, at 37° C. under 5% CO2 and saturated humidity to obtain confluency.
On the first day of oxygen and glucose deprivation, (5th, 6th, 7th or 8th day of culture), the culture conditions are drastically changed. The medium of all plates is removed and replaced by DMEM (DUTSCHER) medium without glucose and supplemented only with 1% penicillin-streptomycin (DUTSCHER). Anidulafungin or micafungin dissolved in dimethyl sulfoxide (DMSO) is then added to each well at the desired concentration, resulting in a maximum of 1% DMSO, and the plates are placed under hypoxia at <1% 02 and 5% CO2 at 37° C. for 24 hours of culture. Each compound was tested in a concentration range.
After 24 hours, the growth medium is changed and replaced by a richer medium, DMEM (DUTSCHER) at 1 g/L glucose and 2% FBS (INNOPROT) and 1% penicillin-streptomycin (DUTSCHER). These media will have been pre-equilibrated at 37° C. in advance. The cells are then returned to culture at 37° C. under 20% 02 and 5% CO2 for 22h.
After 22 hours of reoxygenation, the potential protective effect of anidulafungin or micafungin is measured by a cell viability test using calcein AM (CORNING), which is a dye substrate. The calcein AM can easily cross the cell membrane of the viable cells. The AM ester groups mask the part of the molecule that chelates calcium. Once inside the cells, the (non-fluorescent) calcein AM is hydrolyzed to (fluorescent) calcein by endogenous esterases. The resulting calcein molecule binds to calcium inside the cell and remains trapped inside the cell. These molecules emit strong green fluorescence when subjected to […] of a particular wavelength (495 nm). Since dead cells lack esterase activity, only living cells are labelled.
This cell viability test is performed in two steps. […]

CCCCCOc1ccc(-c2cc(-c3ccc(C(=O)N[C@H]4C[C@@H](O)[C@@H](O)NC(=O)[C@@H]5[C@@H](O)[C@@H](C)CN5C(=O)[C@H]([C@H](O)CC(N)=O)NC(=O)[C@H]([C@H](O)[C@@H](O)c5ccc(O)c(OS(=O)(=O)O)c5)NC(=O)[C@@H]5C[C@@H](O)CN5C(=O)[C@H]([C@@H](C)O)NC4=O)cc3)no2)cc1 [Micafungin, {5-[(1S,2S)-2-[(3S,6S,9S,11R,15S,18S,20R,21R,24S,25S,26S)-3-[(1R)-2-carbamoyl-1-hydroxyethyl]-11,20,21,25-tetrahydroxy-15-[(1R)-1-hydroxyethyl]-26-methyl-2,5,8,14,17,23-hexaoxo-18-[(4-{5-[4-(pentyloxy)phenyl]-1,2-oxazol-3-yl}benzene)amido]-1,4,7,13,16,22-hexaazatricyclo[22.3.0.0]heptacosan-6-yl]-1,2-dihydroxyethyl]-2-hydroxyphenyl}oxidanesulfonic acid] (X1-[Orn(4R-OH,5R-OH)]T[Hyp][hTyr(3S-OH,4S-OH,3'-OSO3H)][Gln(3R-OH)][Pro(3S-OH,4S-Me)]; lactam 1-C)
Globalfluo assay 1 ([Micafungin] log μM −4.39794): 17038910 arbitrary units
Globalfluo assay 2 ([Micafungin] log μM −4.39794): 16914110 arbitrary units
Globalfluo assay 3 ([Micafungin] log μM −4.39794): 17516930 arbitrary units
Mean globalfluo ([Micafungin] log μM −4.39794): 17156650 arbitrary units
Survival rate (%) ([Micafungin] log μM −4.39794): 58%
Globalfluo assay 1 ([Micafungin] log μM −4.69897): 18487560 arbitrary units
Globalfluo assay 2 ([Micafungin] log μM −4.69897): 18879740 arbitrary units
Globalfluo assay 3 ([Micafungin] log μM −4.69897): 18282240 arbitrary units
Mean globalfluo ([Micafungin] log μM −4.69897): 18549847 arbitrary units
Survival rate (%) ([Micafungin] log μM −4.69897): 63%
Globalfluo assay 1 ([Micafungin] log μM −4.79588): 17777390 arbitrary units
Globalfluo assay 2 ([Micafungin] log μM −4.79588): 17681470 arbitrary units
Globalfluo assay 3 ([Micafungin] log μM −4.79588): 18724080 arbitrary units
Mean globalfluo ([Micafungin] log μM −4.79588): 18060980 arbitrary units
Survival rate (%) ([Micafungin] log μM −4.79588): 61%
Globalfluo assay 1 ([Micafungin] log μM −4.853872): 17634840 arbitrary units
Globalfluo assay 2 ([Micafungin] log μM −4.853872): 17920170 arbitrary units
Globalfluo assay 3 ([Micafungin] log μM −4.853872): 19831830 arbitrary units
Mean globalfluo ([Micafungin] log μM −4.853872): 18462280 arbitrary units
Survival rate (%) ([Micafungin] log μM −4.853872): 63%
Globalfluo assay 1 ([Micafungin] log μM −4.920819): 18495680 arbitrary units
Globalfluo assay 2 ([Micafungin] log μM −4.920819): 17954570 arbitrary units
Globalfluo assay 3 ([Micafungin] log μM −4.920819): 19304800 arbitrary units
Mean globalfluo ([Micafungin] log μM −4.920819): 18585017 arbitrary units
Survival rate (%) ([Micafungin] log μM −4.920819): 64%
Globalfluo assay 1 ([Micafungin] log μM −5): 19091330 arbitrary units
Globalfluo assay 2 ([Micafungin] log μM −5): 21245570 arbitrary units
Globalfluo assay 3 ([Micafungin] log μM −5): 20574080 arbitrary units
Mean globalfluo ([Micafungin] log μM −5): 20303660 arbitrary units
Survival rate (%) ([Micafungin] log μM −5): 71%
Globalfluo assay 1 ([Micafungin] log μM −5.30103): 17265090 arbitrary units
Globalfluo assay 2 ([Micafungin] log μM −5.30103): 20693980 arbitrary units
Globalfluo assay 3 ([Micafungin] log μM −5.30103): 20348120 arbitrary units
Mean globalfluo ([Micafungin] log μM −5.30103): 19435730 arbitrary units
Survival rate (%) ([Micafungin] log μM −5.30103): 67%
Globalfluo assay 1 ([Micafungin] log μM −5.69897): 5296218 arbitrary units
Globalfluo assay 2 ([Micafungin] log μM −5.69897): 13559640 arbitrary units
Globalfluo assay 3 ([Micafungin] log μM −5.69897): 14370600 arbitrary units
Mean globalfluo ([Micafungin] log μM −5.69897): 11075486 arbitrary units
Survival rate (%) ([Micafungin] log μM −5.69897): 32%
Globalfluo assay 1 ([Micafungin] log μM −5.823909): 4696579 arbitrary units
Globalfluo assay 2 ([Micafungin] log μM −5.823909): 8382404 arbitrary units
Globalfluo assay 3 ([Micafungin] log μM −5.823909): 9632039 arbitrary units
Mean globalfluo ([Micafungin] log μM −5.823909): 7570341 arbitrary units
Survival rate (%) ([Micafungin] log μM −5.823909): 18%
Globalfluo assay 1 ([Micafungin] log μM −6): 5307945 arbitrary units
Globalfluo assay 2 ([Micafungin] log μM −6): 5614600 arbitrary units
Globalfluo assay 3 ([Micafungin] log μM −6): 8026091 arbitrary units
Mean globalfluo ([Micafungin] log μM −6): 6316212 arbitrary units
Survival rate (%) ([Micafungin] log μM −6): 13%
Globalfluo assay 1 ([Micafungin] log μM −6.09691): 6028392 arbitrary units
Globalfluo assay 2 ([Micafungin] log μM −6.09691): 5998920 arbitrary units
Globalfluo assay 3 ([Micafungin] log μM −6.09691): 5793032 arbitrary units
Mean globalfluo ([Micafungin] log μM −6.09691): 5940115 arbitrary units
Survival rate (%) ([Micafungin] log μM −6.09691): 11%
Globalfluo assay 1 ([Micafungin] log μM −6.221849): 4745212 arbitrary units
Globalfluo assay 2 ([Micafungin] log μM −6.221849): 4694631 arbitrary units
Globalfluo assay 3 ([Micafungin] log μM −6.221849): 5790310 arbitrary units
Mean globalfluo ([Micafungin] log μM −6.221849): 5076718 arbitrary units
Survival rate (%) ([Micafungin] log μM −6.221849): 8%
Globalfluo assay 1 ([Micafungin] log μM −6.39794): 4361975 arbitrary units
Globalfluo assay 2 ([Micafungin] log μM −6.39794): 4442347 arbitrary units
Globalfluo assay 3 ([Micafungin] log μM −6.39794): 5176795 arbitrary units
Mean globalfluo ([Micafungin] log μM −6.39794): 4660372 arbitrary units
Survival rate (%) ([Micafungin] log μM −6.39794): 6%
Globalfluo assay 1 ([Micafungin] log μM −6.69897): 4839699 arbitrary units
Globalfluo assay 2 ([Micafungin] log μM −6.69897): 4005588 arbitrary units
Globalfluo assay 3 ([Micafungin] log μM −6.69897): 4289833 arbitrary units
Mean globalfluo ([Micafungin] log μM −6.69897): 4378373 arbitrary units
Survival rate (%) ([Micafungin] log μM −6.69897): 5%
Globalfluo assay 1 ([Micafungin] log μM −7): 3602590 arbitrary units
Globalfluo assay 2 ([Micafungin] log μM −7): 3530551 arbitrary units
Globalfluo assay 3 ([Micafungin] log μM −7): 3665638 arbitrary units
Mean globalfluo ([Micafungin] log μM −7): 3599593 arbitrary units
Survival rate (%) ([Micafungin] log μM −7): 2%
Globalfluo assay 1 ([Micafungin] log μM −8): 3781795 arbitrary units
Globalfluo assay 2 ([Micafungin] log μM −8): 3409519 arbitrary units
Globalfluo assay 3 ([Micafungin] log μM −8): 3718559 arbitrary units
Mean globalfluo ([Micafungin] log μM −8): 3636624 arbitrary units
Survival rate (%) ([Micafungin] log μM −8): 2%
